According to ChEMBL document CHEMBL4823307, “Discovery of benzimidazole derivatives as potent and selective aldehyde dehydrogenase 1A1 (ALDH1A1) inhibitors with glucose consumption improving activity” (Bioorg Med Chem, 2021):
The source made the active and inactive calls. No cut-off for these calls is given here.

Tests used:
[1] = target: T1, Aldehyde dehydrogenase 1A1 (Homo sapiens) (UniProt P00352); assay: Inhibition of human ALDH1A1 assessed as NADH formation using propionaldehyde as substrate at 10 uM by spectrophotometry
T1 sequence (whole entry): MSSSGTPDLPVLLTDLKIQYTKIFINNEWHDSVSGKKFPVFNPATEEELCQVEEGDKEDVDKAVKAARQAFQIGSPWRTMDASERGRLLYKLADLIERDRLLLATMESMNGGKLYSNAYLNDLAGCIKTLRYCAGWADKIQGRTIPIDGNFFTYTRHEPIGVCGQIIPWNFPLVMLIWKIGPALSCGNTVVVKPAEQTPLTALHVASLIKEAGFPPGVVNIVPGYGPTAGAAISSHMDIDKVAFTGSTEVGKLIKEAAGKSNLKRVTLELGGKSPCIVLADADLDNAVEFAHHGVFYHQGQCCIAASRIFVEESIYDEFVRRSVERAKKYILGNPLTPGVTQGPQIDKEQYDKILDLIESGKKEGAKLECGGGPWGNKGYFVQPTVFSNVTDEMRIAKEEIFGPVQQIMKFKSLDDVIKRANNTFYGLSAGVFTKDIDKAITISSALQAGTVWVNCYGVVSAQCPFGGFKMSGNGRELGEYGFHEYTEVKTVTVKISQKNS

[2] = Cytotoxicity against human HepG2 cells assessed as cell viability at 1 uM incubated for 24 hrs by MTT assay relative to control; type: cell-based; conditions: read-out: Activity
Retinal dehydrogenase 2 = target: T2, Retinal dehydrogenase 2 (Homo sapiens, UniProt O94788); assay: Inhibition of human ALDH1A2 assessed as NADH formation using propionaldehyde as substrate by spectrophotometry
T2 sequence (O94788 whole entry): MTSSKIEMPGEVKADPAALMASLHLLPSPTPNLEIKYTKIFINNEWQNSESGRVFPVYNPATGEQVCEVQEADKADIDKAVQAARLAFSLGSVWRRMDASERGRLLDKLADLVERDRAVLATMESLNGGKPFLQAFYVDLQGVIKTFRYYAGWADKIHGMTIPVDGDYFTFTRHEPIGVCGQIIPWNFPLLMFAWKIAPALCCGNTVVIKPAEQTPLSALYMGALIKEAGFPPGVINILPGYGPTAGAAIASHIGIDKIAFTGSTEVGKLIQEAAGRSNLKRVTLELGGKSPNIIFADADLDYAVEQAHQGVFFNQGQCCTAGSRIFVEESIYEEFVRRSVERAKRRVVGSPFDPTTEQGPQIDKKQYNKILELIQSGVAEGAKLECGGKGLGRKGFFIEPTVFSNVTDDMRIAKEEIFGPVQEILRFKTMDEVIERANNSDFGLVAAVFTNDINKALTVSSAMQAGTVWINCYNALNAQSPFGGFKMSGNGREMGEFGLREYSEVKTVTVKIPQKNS

HepG2 [3] = assay: Increase in glucose consumption in human HepG2 cells at 10 uM by glucose oxidase assay; type: functional
[4] = Cytotoxicity against human HepG2 cells assessed as cell viability at 10 uM incubated for 24 hrs by MTT assay relative to control; type: cell-based; conditions: read-out: Activity
[5] = Cytotoxicity against human HepG2 cells assessed as cell viability at 0.1 uM incubated for 24 hrs by MTT assay relative to control; type: cell-based; conditions: read-out: Activity
[6] = target: T3, Aldehyde dehydrogenase 1A1 (Homo sapiens, UniProt P00352); assay: Inhibition of human ALDH1A1 assessed as NADH formation using propionaldehyde as substrate by spectrophotometry
T3 sequence (P00352 whole entry): T1 sequence (whole entry)

[7] = target: T4, Retinaldehyde dehydrogenase 3 (Homo sapiens, UniProt P47895); assay: Inhibition of human ALDH1A3 assessed as NADH formation using propionaldehyde as substrate by spectrophotometry
T4 sequence (P47895 whole entry): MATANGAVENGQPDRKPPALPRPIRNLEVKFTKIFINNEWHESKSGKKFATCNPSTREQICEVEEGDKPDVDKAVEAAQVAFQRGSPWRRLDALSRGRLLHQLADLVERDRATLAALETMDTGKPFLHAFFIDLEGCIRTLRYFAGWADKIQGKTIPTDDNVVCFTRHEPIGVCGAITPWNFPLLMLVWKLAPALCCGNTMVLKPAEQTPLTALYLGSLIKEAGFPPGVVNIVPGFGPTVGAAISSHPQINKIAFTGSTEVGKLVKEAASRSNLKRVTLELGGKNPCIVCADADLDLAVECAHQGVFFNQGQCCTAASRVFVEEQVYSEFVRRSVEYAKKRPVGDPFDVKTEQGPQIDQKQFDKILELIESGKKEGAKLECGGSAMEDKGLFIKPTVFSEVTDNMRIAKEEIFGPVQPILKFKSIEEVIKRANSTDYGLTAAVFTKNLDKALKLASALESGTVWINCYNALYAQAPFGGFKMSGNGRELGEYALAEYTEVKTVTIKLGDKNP

[8] = target: T5, Aldehyde dehydrogenase, mitochondrial (Homo sapiens, UniProt P05091); assay: Inhibition of human ALDH2 assessed as NADH formation using propionaldehyde as substrate by spectrophotometry
T5 sequence (P05091 whole entry): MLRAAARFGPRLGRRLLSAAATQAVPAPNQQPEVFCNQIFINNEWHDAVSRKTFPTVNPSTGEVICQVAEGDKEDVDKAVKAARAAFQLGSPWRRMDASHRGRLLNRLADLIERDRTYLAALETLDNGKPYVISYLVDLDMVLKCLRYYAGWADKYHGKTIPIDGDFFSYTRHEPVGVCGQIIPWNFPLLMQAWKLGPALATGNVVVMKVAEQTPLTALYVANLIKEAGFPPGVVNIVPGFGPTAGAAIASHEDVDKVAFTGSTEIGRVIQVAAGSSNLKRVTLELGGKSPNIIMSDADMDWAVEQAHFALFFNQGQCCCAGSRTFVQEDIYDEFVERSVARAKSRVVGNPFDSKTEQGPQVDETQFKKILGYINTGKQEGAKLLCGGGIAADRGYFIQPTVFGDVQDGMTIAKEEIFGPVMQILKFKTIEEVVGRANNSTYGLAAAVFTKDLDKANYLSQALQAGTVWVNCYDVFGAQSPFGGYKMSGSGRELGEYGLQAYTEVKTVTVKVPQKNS

HepG2 [9] = assay: Cytotoxicity against human HepG2 cells assessed as morphological changes at 0.1 to 10 uM incubated for 24 hrs; type: cell-based; conditions: hepg2, 24 h, dose 0.1-10 µM
[10] = target: T6, Aldehyde dehydrogenase, dimeric NADP-preferring (Homo sapiens, UniProt P30838); assay: Inhibition of human ALDH3A1 assessed as NADH formation using propionaldehyde as substrate by spectrophotometry
T6 sequence (P30838 whole entry): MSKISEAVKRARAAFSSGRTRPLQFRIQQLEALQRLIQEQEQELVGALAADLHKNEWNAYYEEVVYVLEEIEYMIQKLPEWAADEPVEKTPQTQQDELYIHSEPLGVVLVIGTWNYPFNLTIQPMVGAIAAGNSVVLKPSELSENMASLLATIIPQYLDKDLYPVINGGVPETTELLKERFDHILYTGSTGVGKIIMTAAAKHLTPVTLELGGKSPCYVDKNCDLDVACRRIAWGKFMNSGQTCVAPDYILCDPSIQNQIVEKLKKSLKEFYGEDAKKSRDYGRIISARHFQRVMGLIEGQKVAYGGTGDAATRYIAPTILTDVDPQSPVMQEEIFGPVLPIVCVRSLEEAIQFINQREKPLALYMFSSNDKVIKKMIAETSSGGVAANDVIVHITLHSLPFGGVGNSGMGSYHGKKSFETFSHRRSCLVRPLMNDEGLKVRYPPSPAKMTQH

[11] = Metabolic stability in human liver microsomes assessed as intrinsic clearance at 2 ug/ml measured up to 45 mins by LC-MS/MS analysis; type: ADME, Microsome; conditions: dose 2 µg/ml, read-out: CLH
[12] = Metabolic stability in human liver microsomes assessed as half life at 2 ug/ml measured up to 45 mins by LC-MS/MS analysis; type: ADME, Microsome; conditions: dose 2 µg/ml
[13] = Metabolic stability in human liver microsomes assessed as first order elimination rate constant at 2 ug/ml measured up to 45 mins by LC-MS/MS analysis; type: ADME, Microsome; conditions: dose 2 µg/ml

SMILES	inhibition [1] [%]	viability at 24 h, 1 µM [2] [%]	IC50 (Retinal dehydrogenase 2) [nM]	Activity (HepG2 [3])	viability at 24 h, 10 µM [4] [%]	viability at 24 h, 0.1 µM [5] [%]	IC50 [6] [nM]	IC50 [7] [nM]	IC50 [8] [nM]	Activity (HepG2 [9])	IC50 [10] [nM]	microsomal CLint at 2 ug/ml [11] [µL/min/mg]	half-life at 2 ug/ml [12] [min]	k el at 0.75 h, 2 ug/ml [13] [s⁻¹]
CCC(=O)N1CCN(Cc2nc3ccccc3n2Cc2cccc(C)c2)CC1	85.1	91.8	2090	15%	85.4	89.7	626	1680	3230	Non-Toxic				
Cc1cccc(Cn2c(CN3CCN(C(=O)C(C)C)CC3)nc3ccccc32)c1	87.2	93.7	2780	20%	85.7	98.4	458	2880	2270	Non-Toxic				
O=C(C1CC1)N1CCN(Cc2nc3ccccc3n2Cc2cccc(Cl)c2)CC1	71.6		890				2110	1010	2310		1450			
O=C(C1CC1)N1CCN(Cc2nc3ccccc3n2Cc2ccccc2Cl)CC1	78.3	91.9	1970	28%	85.7	93.8	1020	2410	3160	Non-Toxic	1900	88	32	0.000367
O=C(C1CC1)N1CCN(Cc2nc3ccccc3n2Cc2cccc(C(F)(F)F)c2)CC1	82.1	91.8	1370	30%	90	95.9	921	590	2170	Non-Toxic		104	27	0.000433
Cc1cccc(Cn2c(CN3CCN(C(=O)C4CC4)CC3)nc3ccccc32)c1	89.1	91.3	1580	25%	90	93.4	243	2120	790	Non-Toxic		80	35	0.000333
CC(C)=CCn1c(CN2CCN(C(=O)C3CC3)CC2)nc2ccccc21	74.3		1620				1500	1270	1480		2150			
CC(C)CCn1c(CN2CCN(C(=O)c3ccco3)CC2)nc2c1c(=O)n(C)c(=O)n2C		100		inactive	98.2	100								
O=C(C1CC1)N1CCN(Cc2nc3ccccc3n2Cc2ccc(C(F)(F)F)cc2)CC1	37													
CCn1c(CN2CCN(C(=O)C3CC3)CC2)nc2ccccc21	20.8													
Cc1cccc(Cn2c(CN3CCN(C(=O)C4CCC4)CC3)nc3ccccc32)c1	69.1													
O=C(C1CC1)N1CCN(Cc2nc3ccccc3n2Cc2ccc(F)cc2)CC1	32.7													
